# According to PubChem BioAssay (NCI):
#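 Values below derive from 48-hour exposures of cells grown in 96-well plates, with endpoints linearly interpolated between the two concentrations bracketing the appropriate inhibition level. GI50: concentration for 50% inhibition of growth. Definition used: TGI = concentration required for complete inhibition of growth.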
# Key:
# Assay in all cases: inhibition of tumour cell growth, NCI panel, 48 h
# [1] = test system: SR leukemia
# [2] = test system: KM12 colon
# [3] = test system: HOP-62 NSCLC
# [4] = test system: SK-MEL-2 melanoma
# [5] = test system: EKVX NSCLC
# [6] = test system: SK-MEL-5 melanoma
# [7] = test system: SNB-19 CNS
# [8] = test system: IGROV1 ovarian
# [9] = test system: HL-60(TB) leukemia
# [10] = test system: MDA-MB-435
SMILES,TGI [1] [µM],TGI [2] [µM],TGI [3] [µM],TGI [4] [µM],TGI [5] [µM],TGI [6] [µM],TGI [7] [µM],TGI [8] [µM],TGI [9] [µM],GI50 [1] [nM],GI50 [2] [nM],GI50 [10] [nM],TGI [10] [µM],GI50 [3] [µM],GI50 [4] [µM],GI50 [6] [nM],GI50 [7] [µM],GI50 [8] [nM],GI50 [9] [nM],GI50 [5] [µM]
O=S(=O)(/C=C/CS(=O)(=O)c1ccccc1)c1ccccc1,36.4,32.3,46.2,29.3,> 100,> 100,> 100,> 100,37.9,,,,,,,,,,,
COc1ccccc1CNCCCN1C(=O)c2ccc3c4c(ccc(c24)C1=O)C(=O)N(CCCN)C3=O,1.36,3.25,2.95,3.31,,0.899,3.37,3.48,2.54,243,1690,196,0.413,1.42,1.46,262,1.58,1350,826,
COc1cc2c(cc1OC)[C@@H](Nc1ccc(F)cc1)C1COC(=O)[C@@H]1C2c1cc(OC)c(O)c(OC)c1 (some centres not stated),0.282,> 64.5,2.49,> 60.9,> 100,23.2,> 100,> 100,0.626,,,,,,,,,,,
N#Cc1nc2c(S(=O)(=O)c3ccc(Cl)cc3)c(N)n(CCCN3CCOCC3)c2nc1C#N,31,34.7,51.3,24.5,22.7,20,> 100,,6.55,3580,12300,2210,5.82,15.2,6.77,6670,28.2,,2140,10.6
Nc1c(C(=O)c2cccc(-c3cccnc3)c2)cnn1-c1ccc(F)cc1F,> 6.83,> 25,> 25,> 18.4,,13.8,> 25,> 25,> 25,823,1210,476,1.36,5.49,3.87,1800,11.7,2060,5760,
C=C1c2ccoc2C[C@H]2[C@H]1CC[C@@]1(O)[C@@](C)(C(=O)OC)CCC[C@]21C,31.6,89.7,> 100,42.2,> 100,37.8,> 100,38.4,,13100,25600,23900,54.3,40.7,19,18100,62.1,11200,,37
O=C(O)c1nc(-c2ccc(Cl)c(Cl)c2)nc2ccc(Cl)cc12,> 100,> 100,> 100,> 100,> 100,> 100,> 100,> 100,54.2,,,,,,,,,,,
CCN1C(=O)N(CC)C2C1NN=c1s/c(=C\c3ccccn3)c(=O)n12 (configuration not stated),> 100,> 100,> 100,> 100,> 100,> 100,> 100,> 100,3.42,455,1290,,,2.91,2.64,2460,3.04,2020,487,4.45
CN1CCc2[nH]nc(-c3n[nH]c4c3CN(C)CC4)c2C1,> 100,> 100,> 100,> 100,> 100,> 100,> 100,> 100,,,,,> 100,,,,,,,
Nc1c(C(=O)c2cccc(C#CCO)c2)cnn1-c1ccc(F)cc1,> 25,> 25,> 25,> 25,,> 25,> 25,> 25,> 25,> 25000,> 25000,> 25000,> 25,> 25,> 25,> 25000,> 25,> 25000,> 25000,
Nc1ccccc1C#C/C=C\C#Cc1cccc(O)c1,6.13,11.7,12.1,,23.4,14.5,> 55.7,12.3,21.2,1550,2610,1500,4.12,2.63,,2470,17.1,646,4150,2.69
Cn1cccc1-c1cc(-c2ccc(Br)cc2)[nH]c(=O)c1C#N,> 100,> 100,> 100,> 100,> 100,> 100,> 100,> 100,,> 100000,> 100000,> 100000,> 100,> 100,> 100,> 100000,> 100,77200,,34.5
COc1ccc(N(/C=C/C(=O)C(F)(F)F)CC(=O)c2ccc(F)cc2)cc1,44.3,56,44.9,67.2,> 100,32,> 100,30.7,,19100,21600,19900,52.2,20,31.6,14800,36.6,13000,,25.4
CCC[CH2][Sn]1([CH2]CCC)[O]C2C(CO)OC(n3ccc(N)nc3=O)C2[O]1 (configuration not stated),> 100,3.13,3.99,2.29,,2.99,2.93,2.78,,549,1680,1410,2.88,2.24,0.964,1610,1.55,1020,,
Nc1ncnc2c1c(-c1ccc(Oc3ccccc3)cc1)nn2C[C@@H]1SSC[C@H]1O,11.8,16.7,6.74,3.13,10.5,2.3,13.3,4.2,6.79,163,208,,,0.797,0.826,874,2.88,1340,1840,0.568
